Consider twelve compounds from patent US9499550B2 (BRISTOL-MYERS SQUIBB COMPANY, priority 2012, dated 2016).

For assay [1], the system named is HCV genotype 1a (H77 strain) replicon in HUH-7 cells. Kind of assay: HCV replicon luciferase reporter assay, genotype 1a. Format: cell-based. To be noted: Hepatitis C virus, Huh-7, 72 h, HCV genotype 1a replicon luciferase, 3 days incubation, read-out: LE_1a (EC50, range). The procedure, abridged:
(§1)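 Replicon inhibition for both genotypes was measured as Renilla luciferase signal (EnduRen, 7.5 μM final, 2 h) after 3-day, 37° C exposure of replicon-bearing HUH-7 cells in 4% FCS DMEM, 0.5% DMSO. The 1b construct carries S1179I; the 1a H77 construct carries P1496L and S2204I. Twenty-point, 3-fold dilutions were fitted four-parametrically for EC50, and CC50 was taken from multiplexed Cell Titer-Blue.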

Assay [2] concerns HCV genotype 1b (Con1) replicon in HUH-7 cells. Kind of assay: HCV replicon luciferase reporter assay, genotype 1b. Format: cell-based. To be noted: Hepatitis C virus, Huh-7, 72 h, HCV genotype 1b replicon luciferase, 3 days incubation, read-out: LE_1b (EC50, range). The procedure, abridged: as §1

SMILES strings stand for the structures. Where two headings read alike, the source gives them in different places.

As to `COc1cnc(O[C@@H]2C[C@H]3C(=O)N[C@]4(C(=O)NS(=O)(=O)C5(CF)CC5)C[C@H]4/C=C\CC[C@@H](C)C[C@@H](C)[C@H](NC(=O)OC(C)(C)C)C(=O)N3C2)c2cc(F)ccc12` [Compound 4082, tert-butyl (2R,6S,7R,9R,13aS,14aR,16aS,Z)-2-(7-fluoro-4-methoxyisoquinolin-1-yloxy)-14a-(1-(fluoromethyl)cyclopropylsulfonylcarbamoyl)-7,9-dimethyl-5,16-dioxo-1,2,3,5,6,7,8,9,10,11,13a,14,14a,15,16,16a-hexadecahydrocyclopropa[e]pyrrolo[1,2-a][1,4]diazacyclopentadecin-6-ylcarbamate], the EC50 in assay [1] and in assay [2] was < 5.46 nM in each case.
As to `COc1cnc(O[C@@H]2C[C@H]3C(=O)N[C@]4(C(=O)NS(=O)(=O)C5(CF)CC5)C[C@H]4/C=C\CC[C@@H](C)C[C@@H](C)[C@H](NC(=O)OC(C)(C)C(F)(F)F)C(=O)N3C2)c2cc(F)ccc12` [Compound 4083], the EC50 in assay [1] (GETYPE1A) and in assay [2] (GETYPE1B) was < 5.46 nM each time.
Turning to `COc1cc2c(OC)cnc(O[C@@H]3C[C@H]4C(=O)N[C@]5(C(=O)NS(=O)(=O)C6(CF)CC6)C[C@H]5/C=C\CC[C@@H](C)C[C@@H](C)[C@H](NC(=O)OC(C)(C)C)C(=O)N4C3)c2cc1F` [Compound 4084, tert-butyl (2R,6S,7R,9R,13aS,14aR,16aS,Z)-2-(7-fluoro-4,6-dimethoxyisoquinolin-1-yloxy)-14a-(1-(fluoromethyl)cyclopropylsulfonylcarbamoyl)-7,9-dimethyl-5,16-dioxo-1,2,3,5,6,7,8,9,10,11,13a,14,14a,15,16,16a-hexadecahydrocyclopropa[e]pyrrolo[1,2-a][1,4]diazacyclopentadecin-6-ylcarbamate], the EC50 in assay [1] and in assay [2] was < 5.46 nM in each case.
As to `COc1ccc2nc(O[C@@H]3C[C@H]4C(=O)N[C@]5(C(=O)NS(=O)(=O)C6(C)CC6)C[C@H]5/C=C\CC[C@@H](C)C[C@@H](C)[C@H](NC(=O)OC(C)(C)C)C(=O)N4C3)cnc2c1` [Compound 4085, tert-butyl (2R,6S,7R,9R,13aS,14aR,16aS,Z)-2-(6-methoxyquinoxalin-2-yloxy)-7,9-dimethyl-14a-(1-methylcyclopropylsulfonylcarbamoyl)-5,16-dioxo-1,2,3,5,6,7,8,9,10,11,13a,14,14a,15,16,16a-hexadecahydrocyclopropa[e]pyrrolo[1,2-a][1,4]diazacyclopentadecin-6-ylcarbamate], the concentration giving a half-maximal response (EC50) in assay [1] was 4.82 to 103 nM; in assay [2], < 5.46 nM.
On the same counts, the results for `COc1ccc2ncc(O[C@@H]3C[C@H]4C(=O)N[C@]5(C(=O)NS(=O)(=O)C6(C)CC6)C[C@H]5/C=C\CC[C@@H](C)C[C@@H](C)[C@H](NC(=O)OC(C)(C)C)C(=O)N4C3)nc2c1` [Compound 4086, tert-butyl (2R,6S,7R,9R,13aS,14aR,16aS,Z)-2-(7-methoxyquinoxalin-2-yloxy)-7,9-dimethyl-14a-(1-methylcyclopropylsulfonylcarbamoyl)-5,16-dioxo-1,2,3,5,6,7,8,9,10,11,13a,14,14a,15,16,16a-hexadecahydrocyclopropa[e]pyrrolo[1,2-a][1,4]diazacyclopentadecin-6-ylcarbamate] are < 5.46 nM and < 5.46 nM.
As to `COc1ccc2c(O[C@@H]3C[C@H]4C(=O)N[C@]5(C(=O)NS(=O)(=O)C6(C)CC6)C[C@H]5/C=C\CC[C@@H](C)C[C@@H](C)[C@H](NC(=O)OC(C)(C)C)C(=O)N4C3)ncc(-c3ccc(OC)nc3)c2c1` [Compound 4087, tert-butyl (2R,6S,7R,9R,13aS,14aR,16aS,Z)-2-(6-methoxy-4-(6-methoxypyridin-3-yl)isoquinolin-1-yloxy)-7,9-dimethyl-14a-(1-methylcyclopropylsulfonylcarbamoyl)-5,16-dioxo-1,2,3,5,6,7,8,9,10,11,13a,14,14a,15,16,16a-hexadecahydrocyclopropa[e]pyrrolo[1,2-a][1,4]diazacyclopentadecin-6-ylcarbamate], the EC50 in assay [1] and in assay [2] was < 5.46 nM in each case.
Regarding `COc1ccc2ncc(O[C@@H]3C[C@H]4C(=O)N[C@]5(C(=O)NS(=O)(=O)C6(CF)CC6)C[C@H]5/C=C\CC[C@@H](C)C[C@@H](C)[C@H](NC(=O)OC(C)(C)C(F)(F)F)C(=O)N4C3)nc2c1` [Compound 4088], the EC50 in assay [1] (GETYPE1A) and in assay [2] (GETYPE1B) was < 5.46 nM throughout.
For `COc1ccc2ncc(O[C@@H]3C[C@H]4C(=O)N[C@]5(C(=O)NS(=O)(=O)C6(CF)CC6)C[C@H]5/C=C\CC[C@@H](C)C[C@@H](C)[C@H](NC(=O)OC(C)(C)C)C(=O)N4C3)nc2c1` [Compound 4089, tert-butyl (2R,6S,7R,9R,13aS,14aR,16aS,Z)-14a-(1-(fluoromethyl)cyclopropylsulfonylcarbamoyl)-2-(7-methoxyquinoxalin-2-yloxy)-7,9-dimethyl-5,16-dioxo-1,2,3,5,6,7,8,9,10,11,13a,14,14a,15,16,16a-hexadecahydrocyclopropa[e]pyrrolo[1,2-a][1,4]diazacyclopentadecin-6-ylcarbamate], the concentration giving a half-maximal response (EC50) in assay [1] is 4.82 to 103 nM; in assay [2], < 5.46 nM.
Taken in the same sequence, the figures for `COc1cc2ccnc(O[C@@H]3C[C@H]4C(=O)N[C@]5(C(=O)NS(=O)(=O)C6(CF)CC6)C[C@H]5/C=C\CC[C@@H](C)C[C@@H](C)[C@H](NC(=O)C5(C(F)(F)F)CC5)C(=O)N4C3)c2cc1F` [Compound 4090, (2R,6S,7R,9R,13aS,14aR,16aS,Z)-2-(7-fluoro-6-methoxyisoquinolin-1-yloxy)-N-(1-(fluoromethyl)cyclopropylsulfonyl)-7,9-dimethyl-5,16-dioxo-6-(1-(trifluoromethyl)cyclopropanecarboxamido)-1,2,3,5,6,7,8,9,10,11,13a,14,14a,15,16,16a-hexadecahydrocyclopropa[e]pyrrolo[1,2-a][1,4]diazacyclopentadecine-14a-carboxamide] were < 5.46 nM and < 5.46 nM.
Taken in the same sequence, the figures for `COc1cc2ccnc(O[C@@H]3C[C@H]4C(=O)N[C@]5(C(=O)NS(=O)(=O)C6(CF)CC6)C[C@H]5/C=C\CC[C@@H](C)C[C@@H](C)[C@H](NC(=O)C(C)(C)C(F)(F)F)C(=O)N4C3)c2cc1F` [Compound 4091, (2R,6S,7R,9R,13aS,14aR,16aS,Z)-2-(7-fluoro-6-methoxyisoquinolin-1-yloxy)-N-(1-(fluoromethyl)cyclopropylsulfonyl)-7,9-dimethyl-5,16-dioxo-6-(3,3,3-trifluoro-2,2-dimethylpropanamido)-1,2,3,5,6,7,8,9,10,11,13a,14,14a,15,16,16a-hexadecahydrocyclopropa[e]pyrrolo[1,2-a][1,4]diazacyclopentadecine-14a-carboxamide] were < 5.46 nM and < 5.46 nM.
As to `COc1cc2ccnc(O[C@@H]3C[C@H]4C(=O)N[C@]5(C(=O)NS(=O)(=O)C6(C(F)F)CC6)C[C@H]5/C=C\CC[C@@H](C)C[C@@H](C)[C@H](NC(=O)OC(C)(C)C(F)(F)F)C(=O)N4C3)c2cc1F` [Compound 4093], the EC50 in assay [1] (GETYPE1A) and in assay [2] (GETYPE1B) was < 5.46 nM in each case.
Turning to `COc1cc2c(OC)cnc(O[C@@H]3C[C@H]4C(=O)N[C@]5(C(=O)NS(=O)(=O)C6(C(F)F)CC6)C[C@H]5/C=C\CC[C@@H](C)C[C@@H](C)[C@H](NC(=O)OC(C)(C)C(F)(F)F)C(=O)N4C3)c2cc1F` [Compound 4095], the 50% effective concentration (EC50) in assay [1] (GETYPE1A) and in assay [2] (GETYPE1B) was < 5.46 nM in each case.
